We go through 19 molecules from patent publication US3963707A, “Novel N-nitroso compounds, compositions containing such compounds, processes for their preparation and methods of treatment therewith, and novel intermediates” (Aktiebolaget Leo, priority 1973, dated 1976).

The test system of series [1] is Ehrlich ascites tumour, ELD hyperdiploid (46 chromosomes). As to the kind of experiment: Ehrlich ascites tumour test (LD50, ED50, therapeutic index). In kind it is in vivo, SPF NMRI mice. As to conditions: additional compounds, result in words. From the text:
The high activity against tumours is further illustrated in these experiments by comparisons with known antitumour agents used in the therapy. The therapeutic indexes (T.I.), i.e. the ratios LD50/ED50, are in all comparisons much more favourable with the compounds of the present invention.
LD50 is the dose that caused a 50 percent lethality of the animals, ED50 is the dose that caused a 50 percent reduction of tumour size.
(§1) The experimental design and the interpretation of the results have been in accordance with the standards set by the CCNSC (Cancer Chemotherapy Reports, January 1959 and December 1962), and by the DR&D (Cancer Chemotherapy Reports, September 1972, Vol. 3, No. 2).
(§2) The way of administration is by the intraperitoneal route (i.p.) in each case.
Ehrlich ascites tumour, ELD hyperdiploid (46 chromosomes)
Experimental animals: SPF NMRI mice.
Tumour implant: 2 × 10^6 tumour cells i.p.
(§3) Therapy: One injection i.p. on the day following implantation.
Termination: The animals are killed on the 8th day.
Evaluation: Weights of tumours of test animals compared with those of control animals.

For the next series, the system named is Hepatoma AH 130. Kind of series: in vivo. Details: species or system SPF Wistar rats. As to conditions: for T.I. (LD50/ED50): Hepatoma AH 130, rats, i.p.; for ED50: Rattus norvegicus, ip, 192 h, one injection i.p. day after implantation, dose causing 50 percent reduction of tumour size. In outline: (§4)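 Therapeutic index (LD50/ED50) was derived from tumour weight against controls at day-8 sacrifice, with ED50 the dose giving 50% tumour reduction. Rats (SPF Wistar) bore 5 × 10^6 hepatoma cells implanted intraperitoneally. A single i.p. injection followed on the day after implantation.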

The nature of another series: in vivo. Details: species or system SPF Wistar rats. Conditions: rat, in vivo, ip; one injection i.p., rats; dose causing 50 percent lethality. A digest of the protocol: as §4
Series [2] concerns Walker carcinosarcoma 256. As to the kind of experiment: Walker carcinosarcoma 256 test. In kind it is in vivo, Sprague Dawley rats. Conditions: for Lethality: died/used animals.
Text: as §1, §2
Walker carcinosarcoma 256
Experimental animals: Sprague Dawley rats.
Tumour implant: Tumour pieces with 2-4 mm diameter, subcutaneously.
Therapy: Daily injections i.p. for 5 days starting on the day following implantation.
Termination: The animals are killed on the 9th day.
Evaluation: Weights of tumours of test animals are compared with those of control animals. The differences, in per cent of weights of tumours of control animals, give per cent tumour inhibition.
The lethality is given as the number of animals which died in the experiment/the number of animals used in the experiments.

In series [3] the test system is Lymphatic leukemia L 1210. As to the kind of experiment: Lymphatic leukemia L 1210 test. The class given is in vivo, CDF1 (C3H×DBA/2)F1 mice. As to conditions: dose of 1000 mg/kg, comparative compounds.
Text: as §1, §2
Lymphatic leukemia L 1210
Experimental animals: CDF1 (C3H×DBA/2)F1 mice.
Tumour implant: 10^5 tumour cells i.p.
as §3
Evaluation: a) The survival time of the test animals (t) expressed as the percentage of that of control animals (c).
b. Weight change in the test animals (T) compared with that of the control animals (c) up to the 5th day.
c. The mortality rate must not exceed 35% in the test animals on the 5th day of therapy.

[4] abbreviates: doses 1 × 250, 1 × 500 and 1 × 1000 mg/kg respectively.
Setting [5] is: additional compounds, result in words.

Regarding `C[C@]12CC[C@@H]3c4ccc(OC(=O)N(CCCl)N=O)cc4CC[C@H]3[C@@H]1CC[C@@H]2O` [17β-estradiol-3-N-(2-chloroethyl)-N-nitroso carbamate], in series [1], the anti-tumor activity result is reported as “exhibit anti-tumor activity”. Moreover, in the series on Hepatoma AH 130, the “T.I. (LD50/ED50)” value is listed as greater than 4.000 and the ED50 is less than 0.25 mg/kg. For the same molecule, the LD50 in the series “in vivo” was greater than 1000 mg/kg. Besides, in series [2] (5×31 mg/kg i.p.), the Tumour inhibition % is listed as 86% and the Lethality is 0/8.

In the case of `C[C@]12CC[C@H]3[C@@H](CC=C4C[C@@H](OC(=O)N(CCCl)N=O)CC[C@@]43C)[C@@H]1CC[C@@H]2OC(=O)N(CCCl)N=O` [androstenediol-3β,17β-bis-/N-(2-chloroethyl)-N-nitroso carbamate/], the anti-tumor activity result in series [1] is “exhibit anti-tumor activity”. The 50% effective dose (ED50) in the series with Hepatoma AH 130 stood at 0.25 mg/kg. In addition, the LD50 in the series “in vivo” is greater than 250 mg/kg.

Take `CC(=O)O[C@H]1CC[C@@]2(C)C(=CC[C@H]3[C@@H]4CC[C@H](OC(=O)N(CCCl)N=O)[C@@]4(C)CC[C@@H]32)C1` [androstenediol-3β-acetate-17β-N-(2-chloroethyl)-N-nitroso carbamate]: the anti-tumor activity result in series [1] is on record as “exhibit anti-tumor activity”. Besides, the 50% effect level in the series with Hepatoma AH 130 (ED50) was put at a dose of 0.25 mg/kg. Also, in the series “in vivo”, the LD50 is greater than 250 mg/kg. Besides, in series [2] (5×125 mg/kg i.p.), the Tumour inhibition % is 41% and the Lethality is listed as 0/8.

Take `CC(=O)O[C@H]1CC[C@H]2[C@@H]3CC=C4C[C@@H](OC(=O)N(CCCl)N=O)CC[C@]4(C)[C@H]3CC[C@]12C` [androstenediol-17β-acetate-3β-N-(2-chloroethyl)-N-nitroso carbamate]: the anti-tumor activity result in series [1] is given as “exhibit anti-tumor activity”. The molecule also came in with an ED50 with Hepatoma AH 130 of 0.25 mg/kg. Further, the 50% lethal dose (LD50) in “in vivo” is greater than 250 mg/kg. For the same molecule, in series [2] (5×125 mg/kg i.p.), the Tumour inhibition % turned out to be 59% and the Lethality is 0/8.

Regarding `CC(C)CCC[C@@H](C)[C@H]1CC[C@H]2[C@@H]3CC=C4C[C@@H](OC(=O)N(CCCl)N=O)CC[C@]4(C)[C@H]3CC[C@]12C` [cholesterol-3β-N-(2-chloroethyl)-N-nitroso carbamate], the anti-tumor activity entry in series [1] is “exhibit anti-tumor activity”. Moreover, in the series with Hepatoma AH 130, the “T.I. (LD50/ED50)” value was greater than 5 and it took a dose of 200 mg/kg to reach the 50% effect level (ED50). Besides, the LD50 in the series “in vivo” was greater than 1000 mg/kg. Further, in series [2] (5×500 mg/kg i.p.), the Tumour inhibition % worked out at 39% and the Lethality is 0/8.

`C[C@]12CC[C@H](OC(=O)N(CCCBr)N=O)CC1=CC[C@@H]1[C@@H]2CC[C@]2(C)C(=O)CC[C@@H]12` [dehydroepiandrosterone - 3β-N-(3-bromopropyl)-N-nitroso carbamate]: the anti-tumor activity entry in series [1] is listed as “exhibit anti-tumor activity”. Also, in series [2] (5×125 mg/kg i.p.), the Tumour inhibition % is 39% and the Lethality is given as 0/8.

With `C[C@]12CC[C@H](OC(=O)N(CCBr)N=O)CC1=CC[C@@H]1[C@@H]2CC[C@]2(C)C(=O)CC[C@@H]12` [dehydroepiandrosterone-3β-N-(2-bromoethyl)-N-nitroso carbamate], the anti-tumor activity result in series [1] is on record as “exhibit anti-tumor activity”. Moreover, in the series with Hepatoma AH 130, the “T.I. (LD50/ED50)” value is given as greater than 14 and the ED50 turned out to be 70 mg/kg. This molecule yielded a 50% lethal dose (LD50) in the series “in vivo” greater than 1000 mg/kg. Besides, in series [2] (5×250 mg/kg i.p.), the Tumour inhibition % was found to be 61% and the Lethality was 0/8.

For the molecule `C[C@]12CC[C@H](OC(=O)NCCCl)CC1=CC[C@@H]1[C@@H]2CC[C@]2(C)C(=O)CC[C@@H]12` [dehydroepiandrosterone-3β-N-(2-chloroethyl) carbamate, reference compound], the anti-tumor activity entry in the series on Hepatoma AH 130 (setting [4]) was “inactive”. Further, the “effect on L 1210” value in series [3] was “without effect”.

As to `CN(CCCl)C(=O)O[C@H]1CC[C@@]2(C)C(=CC[C@@H]3[C@@H]2CC[C@]2(C)C(=O)CC[C@@H]32)C1` [dehydroepiandrosterone-3β-N-(2-chloroethyl)-N-methyl carbamate, reference compound], the anti-tumor activity entry in the series with Hepatoma AH 130 (setting [4]) is “inactive”. Further, in series [2] (5×500 mg/kg i.p.), the Tumour inhibition % is recorded as less than 10% and the Lethality is listed as 0/8.

Consider `CC(Cl)CN(N=O)C(=O)O[C@H]1CC[C@@]2(C)C(=CC[C@@H]3[C@@H]2CC[C@]2(C)C(=O)CC[C@@H]32)C1` (stereo partly drawn) [dehydroepiandrosterone-3β-N-(2-chloropropyl)-N-nitroso carbamate], for which the anti-tumor activity result in series [1] is reported as “exhibit anti-tumor activity”. In addition, in the series on Hepatoma AH 130, the “T.I. (LD50/ED50)” value was greater than 10 and the 50% effect level (ED50) was put at a dose of 100 mg/kg. In the series “in vivo”, the LD50 was greater than 1000 mg/kg.

Consider `CCN(N=O)C(=O)O[C@H]1CC[C@@]2(C)C(=CC[C@@H]3[C@@H]2CC[C@]2(C)C(=O)CC[C@@H]32)C1` [dehydroepiandrosterone-3β-N-ethyl-N-nitroso carbamate, reference compound], for which the anti-tumor activity result with Hepatoma AH 130 (setting [4]) was “inactive”. Moreover, in series [2] (5×500 mg/kg i.p.), the Tumour inhibition % was 0% and the Lethality was 1/8. The “effect on L 1210” value in series [3] is recorded as “without effect”.

As to `C[C@]12CC[C@@H]3c4ccc(OC(=O)N(CCCl)N=O)cc4CC[C@H]3[C@@H]1C[C@@H](OC(=O)CCC(=O)O)[C@@H]2OC(=O)CCC(=O)O` [estriol-3-N-(2-chloroethyl)-N-nitroso carbamate-16α,17β-bis-hemisuccinate], the anti-tumor activity entry (in series [1]; in the series with Hepatoma AH 130 (setting [5])) was “exhibit anti-tumor activity” each time.

Consider `CC(=O)Oc1ccc2c(c1)CC[C@@H]1[C@@H]2CC[C@@]2(C)[C@H]1C[C@@H](OC(=O)N(CCCl)N=O)[C@@H]2OC(=O)N(CCCl)N=O` [estriol-3-acetate-16α,17β-bis-/N-(2-chloroethyl)-N-nitroso carbamate/], for which the anti-tumor activity entry (in series [1]; with Hepatoma AH 130 (setting [5])) was “exhibit anti-tumor activity” in each case.

Turning to `CC(=O)O[C@@H]1C[C@H]2[C@@H]3CCc4cc(OC(=O)N(CCCl)N=O)ccc4[C@H]3CC[C@]2(C)[C@H]1OC(C)=O` [estriol-16α,17β-diacetate-3-N-(2-chloroethyl)-N-nitroso carbamate], the anti-tumor activity result (in series [1]; with Hepatoma AH 130 (setting [5])) was “exhibit anti-tumor activity” throughout.

Take `C[C@]12CC[C@@H](OC(=O)N(CCCl)N=O)C[C@H]1CC[C@@H]1[C@@H]2CC[C@]2(C)C(=O)CC[C@@H]12` [etiocholanolone-3α-N-(2-chloroethyl)-N-nitroso carbamate]: the anti-tumor activity result (in series [1]; in the series with Hepatoma AH 130 (setting [5])) was “exhibit anti-tumor activity” throughout.

For the molecule `C[C@]12CCC(=O)C=C1CC[C@@H]1[C@@H]2[C@@H](O)C[C@@]2(C)[C@H]1CC[C@]2(O)C(=O)COC(=O)N(CCCl)N=O` [hydrocortisone-21-N-(2-chloroethyl)-N-nitroso carbamate], the anti-tumor activity entry (in series [1]; in the series on Hepatoma AH 130 (setting [5])) was “exhibit anti-tumor activity” throughout.

For `C#C[C@]1(OC(=O)N(CCCl)N=O)CC[C@H]2[C@@H]3CCC4=C(CCC(=O)C4)[C@H]3CC[C@@]21C` [norethynodrel-17β-N-(2-chloroethyl)-N-nitroso carbamate], the anti-tumor activity entry (in series [1]; in the series with Hepatoma AH 130 (setting [5])) was “exhibit anti-tumor activity” each time.

Turning to `C[C@]12C=CC(=O)C=C1CC[C@@H]1[C@@H]2C(=O)C[C@@]2(C)[C@H]1CC[C@]2(O)C(=O)COC(=O)N(CCCl)N=O` [prednisone-21-N-(2-chloroethyl)-N-nitroso carbamate], the anti-tumor activity result (in series [1]; in the series on Hepatoma AH 130 (setting [5])) was “exhibit anti-tumor activity” throughout.

As to `C[C@]12CC[C@H]3[C@@H](CCC4=CC(=O)CC[C@@]43C)[C@@H]1CC[C@@H]2OC(=O)N(C(=O)N(CCCl)N=O)C1CCCCC1` [testosterone-17β-/N^2-cyclohexyl-N^4-(2-chloroethyl)-N^4-nitroso allophanate/], the anti-tumor activity entry (in series [1]; with Hepatoma AH 130 (setting [5])) was “exhibit anti-tumor activity” in each case.

One may read the ED50 as the midpoint of the dose-response relation. A lower ED50 goes with an effect at a small dose. As a reminder, the LD50 is the dose expected to kill half of the subjects tested. A higher LD50 goes with lower toxicity.
